The numbers were not newly measured in paper PMC3635145 (Journal of medicinal chemistry, 2013), which cites them from elsewhere.

The structures appear in SMILES notation.

The target in the data set is T1, TbrPDEB1 (Trypanosoma brucei, UniProt Q8WQX9).
T1 sequence (Q8WQX9 1-930): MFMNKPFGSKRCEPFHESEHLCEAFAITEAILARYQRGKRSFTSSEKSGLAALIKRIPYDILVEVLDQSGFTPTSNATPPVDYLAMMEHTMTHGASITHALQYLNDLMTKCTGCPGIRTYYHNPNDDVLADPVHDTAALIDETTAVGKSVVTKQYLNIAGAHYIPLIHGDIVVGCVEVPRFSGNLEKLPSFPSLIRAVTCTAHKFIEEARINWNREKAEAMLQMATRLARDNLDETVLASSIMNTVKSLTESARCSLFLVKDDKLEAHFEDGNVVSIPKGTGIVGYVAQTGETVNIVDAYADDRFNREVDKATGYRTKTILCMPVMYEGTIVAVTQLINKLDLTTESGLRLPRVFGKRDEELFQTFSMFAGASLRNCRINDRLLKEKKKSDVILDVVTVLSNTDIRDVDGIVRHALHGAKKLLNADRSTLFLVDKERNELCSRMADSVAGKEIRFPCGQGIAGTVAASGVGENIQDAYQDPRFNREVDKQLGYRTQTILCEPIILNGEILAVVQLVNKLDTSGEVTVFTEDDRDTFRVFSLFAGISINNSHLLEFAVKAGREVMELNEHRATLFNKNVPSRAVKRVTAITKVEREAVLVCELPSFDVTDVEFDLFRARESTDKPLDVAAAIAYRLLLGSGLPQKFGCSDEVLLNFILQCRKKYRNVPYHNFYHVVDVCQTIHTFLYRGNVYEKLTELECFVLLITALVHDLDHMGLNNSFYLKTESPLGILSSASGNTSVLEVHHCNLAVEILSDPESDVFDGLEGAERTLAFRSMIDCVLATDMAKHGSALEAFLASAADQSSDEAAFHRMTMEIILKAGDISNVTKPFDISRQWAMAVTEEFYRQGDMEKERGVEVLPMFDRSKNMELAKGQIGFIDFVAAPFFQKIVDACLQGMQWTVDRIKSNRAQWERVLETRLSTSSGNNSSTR

As for `COc1ccc(C(=O)CC(C)C)cc1OCCCCO` [compound 5, 1-(3-(4-hydroxybutoxy)-4-methoxyphenyl)-3-methylbutan-1-one], the “TbrPDEB1 inhibition (in words)” value is on record as “appears to inhibit TbrPDEB1 to some extent”.
